For the assay, the system named is KRAS PDC multicell spheroid viability. As to the kind of experiment: Anticancer human tumor 521955-158-R6-J3-PDC patient-derived pancreatic carcinoma cell line growth inhibition [KRAS2]. The settings on record: for viability, T/C: stronger effect = lower value. From the text: Multicellular complex tumor spheroid response to RAS pathway inhibitors in combination with a targeted agents in patient-derived cell lines with oncogenic KRAS variants from multiple cancer types
A high-throughput screen of multi-cell type tumor spheroids was designed to identify active combinations of targeted small molecules and KRAS pathway inhibitors. Complex spheroids include a stromal component modeled by human endothelial cells (HUVEC) and fibroblasts modeled by human mesenchymal stem cells (MSCs). The concentration ranges selected for each drug and investigational agent were based upon clinically achievable concentrations if the clinical Cmax of the agent was known.
Compounds. The drugs and investigational agents: BI-3406 (NSC825286), BAY-293 (NSC824723), batoprotafib (TNO155; NSC825523), sotorasib (AMG 510; NSC818433), MRTX1257 (NSC819558), elimusertib (BAY 1895344; NSC800525), molibresib (GSK525762; NSC774829), temuterkib (LY3214996; NSC803410), venetoclax (NSC766270), alisertib (NSC759677), olaparib (NSC753686), talazoparib (NSC767125), erdafitinib (NSC781556), ipatasertib (NSC767898), cabozantinib (NSC761068), nintedanib (NSC756659), abemaciclib (NSC768073), docetaxel (NSC628503), trametinib (NSC758246), and sapanisertib (NSC764658) were obtained from the National Cancer Institute (NCI) Developmental Therapeutics Program Chemical Repository. The FDA-approved anticancer drug set is available from the Developmental Therapeutics Program. […] The stock solutions were prepared in dimethyl sulfoxide (DMSO, Sigma-Aldrich, St. Louis, MO, cat. D2650) at 800-fold the tested concentration and stored at -70 degrees C prior to their use. All drugs and investigational agents were tested over a range starting from a high concentration at or near the clinical Cmax and decreasing in half-log increments. If the clinical Cmax for an agent had not been determined, the highest concentration tested was 10 microM.
Cell Culture. All cells were maintained in an incubator at 37 degrees C and 5% CO2 with 95% humidity. The PDC lines were cultured according to standard operating procedures established by the NCI PDMR (https://pdmr.cancer.gov/sops/default.htm). Briefly, all PDCs were thawed and cultured in Matrigel-coated flasks prepared with a working solution of 1X Ham's F-12 nutrient mix, without supplementation (Invitrogen, Waltham, MA, cat. 11765054), 100 U/mL penicillin-streptomycin (Invitrogen, cat. 15140122), and 2.5% Matrigel (Corning Inc., Corning, NY, cat. 354248) for the first three passages. All PDCs were cultured in complete DMEM/F-12 media containing advanced DMEM/F-12 (Invitrogen, cat. 12634028), 4.9% defined fetal bovine serum, heat inactivated (HyClone Laboratories Inc., Logan, UT, cat. SH30070.03HI), 389 ng/mL hydrocortisone (Sigma-Aldrich, cat. H4001), 9.7 ng/mL human EGF recombinant protein (Invitrogen, cat. PHG0313), 23.4 microg/mL adenine (Sigma-Aldrich, cat. A2786), 97.3 U/mL penicillin-streptomycin (Invitrogen, cat. 15140122), 1.9 mM L-glutamine (Invitrogen, cat. 25030081), and 9.7 microM Y-27632 dihydrochloride (Tocris Bioscience, Bristol, United Kingdom, cat. 1254). The PDCs were cultured in complete DMEM/F12 media without 9.7 microM Y-27632 dihydrochloride for at least two passages prior to the screen. The established cell line HOP-62 was cultured in RPMI 1640 medium, HEPES (Invitrogen, cat. 22400105) with 10% defined fetal bovine serum (HyClone Laboratories Inc., cat. SH30070.03) and 2 mM L-glutamine (Invitrogen, cat. 25030081). The pooled donor HUVEC were cultured in endothelial cell growth medium 2 (PromoCell, Heidelberg, Germany, cat. C-22011) and the hMSC were cultured in mesenchymal stem cell growth medium 2 (PromoCell, cat. C-28009). For all experiments, HUVEC and hMSC were used at passages </=5, while the malignant cell lines were used at passages </=15. […]

The mark [1] stands for this setting: curve of first compound, second compound 0.1 µM.
Where [2] appears, read: curve of first compound, second compound 0.316 µM.
[3] abbreviates: curve of first compound, second compound 1 µM.
Where [4] appears, read: curve of first compound, second compound 3.16 µM.
The mark [5] stands for this setting: second compound 0.1 µM, first compound 0.0316 µM.
The mark [6] stands for this setting: second compound 0.1 µM, first compound 0.1 µM.
[7] abbreviates: second compound 0.1 µM, first compound 0.316 µM.
Setting [8] is: second compound 0.1 µM, first compound 1 µM.
The mark [9] stands for this setting: second compound 0.1 µM, first compound 3.16 µM.
Setting [10] is: second compound 0.316 µM, first compound 0.0316 µM.
Where [11] appears, read: second compound 0.316 µM, first compound 0.1 µM.
[12] abbreviates: second compound 0.316 µM, first compound 0.316 µM.
Where [13] appears, read: second compound 0.316 µM, first compound 1 µM.
Where [14] appears, read: second compound 0.316 µM, first compound 3.16 µM.
[15] abbreviates: second compound 1 µM, first compound 0.0316 µM.
Where [16] appears, read: second compound 1 µM, first compound 0.1 µM.
[17] abbreviates: second compound 1 µM, first compound 0.316 µM.
The mark [18] stands for this setting: second compound 1 µM, first compound 1 µM.
Where [19] appears, read: second compound 1 µM, first compound 3.16 µM.
[20] abbreviates: second compound 3.16 µM, first compound 0.0316 µM.
Setting [21] is: second compound 3.16 µM, first compound 0.1 µM.
The mark [22] stands for this setting: second compound 3.16 µM, first compound 0.316 µM.
Where [23] appears, read: second compound 3.16 µM, first compound 1 µM.
The mark [24] stands for this setting: second compound 3.16 µM, first compound 3.16 µM.

SMILES strings stand for the structures.

By IC50 is commonly meant the concentration that gives 50% inhibition. Usually viability, T/C stands for the ratio of treated to control.
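Further: drug exposure lasted seven days.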
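Wherever viability, T/C is given: 100% = DMSO vehicle wells and lower means fewer viable cells.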

As for `O=C(c1cc(Cc2n[nH]c(=O)c3ccccc23)ccc1F)N1CCN(C(=O)C2CC2)CC1` + C=CC(=O)N1CCN(c2nc(=O)n(-c3c(C)ccnc3C(C)C)c3nc(-c4c(O)cccc4F)c(F)cc23)C(C)C1, the IC50 under setting [1] was greater than 10 µM; the half-maximal inhibitory concentration (IC50) under setting [2] was greater than 10 µM; the IC50 under setting [3] is greater than 10 µM; the IC50 under setting [4] is greater than 10 µM; the IC50 (curve of first compound, second compound 10 µM) is greater than 10 µM. In addition, the viability, T/C reads like this: under setting [5], 110%; under setting [6], 103%; under setting [7], 113%; under setting [8], 96.1%; under setting [9], 101%; (second compound 0.1 µM, first compound 10 µM) 96.2%. The viability, T/C was 118% under setting [10]; 118% under setting [11]; 106% under setting [12]; 104% under setting [13]; 93.8% under setting [14]; 111% (second compound 0.316 µM, first compound 10 µM). For the same compound, the viability, T/C is 118% under setting [15]; 114% under setting [16]; 110% under setting [17]; 99.3% under setting [18]; 99.7% under setting [19]; 111% (second compound 1 µM, first compound 10 µM). Also, the viability, T/C was 103% under setting [20]; 105% under setting [21]; 95.4% under setting [22]; 104% under setting [23]; 98.2% under setting [24]; 81.5% (second compound 3.16 µM, first compound 10 µM). The viability, T/C was 84.4% (second compound 10 µM, first compound 0.0316 µM); 84.7% (second compound 10 µM, first compound 0.1 µM); 87.1% (second compound 10 µM, first compound 0.316 µM); 84% (second compound 10 µM, first compound 1 µM); 84.2% (second compound 10 µM, first compound 3.16 µM); 83.9% (second compound 10 µM, first compound 10 µM).

For the compound `CC1COCCN1c1cc(-c2ccnn2C)c2ccnc(-c3ccn[nH]3)c2n1` (configuration not stated), the viability, T/C was 99.8% [middle of 5 runs] (compound 0.01 µM); 90.3% [middle of 5 runs] (compound 0.0316 µM); 83.4% [middle of 5 runs] (compound 0.1 µM); 78.2% [middle of 5 runs] (compound 0.316 µM); 84.7% [middle of 5 runs] (compound 1 µM); 86.6% [middle of 5 runs] (compound 3.16 µM). Further, the IC50 (curve of compound) is greater than 3.16 µM.

`CNCc1ccccc1-c1csc(C(C)Nc2nc(C)nc3cc(OC)c(OC)cc23)c1` (configuration not stated): the viability, T/C (compound 0.1 µM) is 84.1% [middle of 16 runs]; the viability, T/C (compound 0.316 µM) is 79% [middle of 16 runs]; the viability, T/C (compound 10 µM) is 0.23% [middle of 15 runs]. Besides, the IC50 (compound alone, run of 08/26/2021) was 1.48 µM [middle of 5 runs] and the IC50 (compound alone, run of 09/02/2021) is 1.4 µM [middle of 5 runs].

With `CC1COCCN1c1cc(-c2ccnn2C)c2ccnc(-c3ccn[nH]3)c2n1` (configuration not stated) + C=CC(=O)N1CCN(c2nc(OCC3CCCN3C)nc3c2CCN(c2cccc4cccc(C)c24)C3)CC1CC#N, the IC50 by setting is: (curve of first compound, second compound 0.0316 µM) greater than 3.16 µM; under setting [1], greater than 3.16 µM; under setting [2], greater than 3.16 µM; under setting [3], greater than 3.16 µM; under setting [4], 0.0121 µM. Moreover, the viability, T/C is, setting by setting: (second compound 0.0316 µM, first compound 0.01 µM) 88%; (second compound 0.0316 µM, first compound 0.0316 µM) 90.2%; (second compound 0.0316 µM, first compound 0.1 µM) 89.7%; (second compound 0.0316 µM, first compound 0.316 µM) 79.8%; (second compound 0.0316 µM, first compound 1 µM) 78.8%; (second compound 0.0316 µM, first compound 3.16 µM) 92.9%. For the same compound, the viability, T/C (second compound 0.1 µM, first compound 0.01 µM) is 92.6%; the viability, T/C under setting [5] was 95.3%; the viability, T/C under setting [6] was 77%; the viability, T/C under setting [7] was 71.4%; the viability, T/C under setting [8] is 75%; the viability, T/C under setting [9] is 94.5%. Also, the viability, T/C runs as follows: (second compound 0.316 µM, first compound 0.01 µM) 89.5%; under setting [10], 85.1%; under setting [11], 73.1%; under setting [12], 74.7%; under setting [13], 73.6%; under setting [14], 76.8%. Moreover, the viability, T/C is, setting by setting: (second compound 1 µM, first compound 0.01 µM) 71.7%; under setting [15], 79%; under setting [16], 68%; under setting [17], 69.4%; under setting [18], 59.9%; under setting [19], 71.7%. Besides, the viability, T/C is 52.2% (second compound 3.16 µM, first compound 0.01 µM); 39.7% under setting [20]; 31.9% under setting [21]; 36.5% under setting [22]; 27.6% under setting [23]; 45.8% under setting [24].
